Source: US5922723A, “Pharmaceutical compositions for prevention and treatment of central nervous system disorders” (priority 1996, dated 1999)
pEC50, pKi: −log10 of the molar value. Structures can show the parent of a compound that is named as a salt.

Legend:
[1] = target: T1, muscle-like nicotinic receptors (human clonal line TE671/RD) (Homo sapiens, UniProt P02708+P07510+Q07001); format: cell-based; details: for effects at muscle sites (in words): summary of Table I; for Muscle Effect: te671/rd cells
T1 construct: these cells express muscle-like nicotinic receptors; endogenous in cells; host or cells: TE671/RD (human embryonal rhabdomyosarcoma clonal line), intact cells
Method: Discussion concerning the heterogeneity of nicotinic receptors subtypes is set forth in Lukas et al., Internatl. […] Acetylcholine nicotinic receptors expressed in rat ganglia share a very high degree of homology with their human counterparts. See, Fornasari et al., Neurosci. […] Intact cells on dishes were used for functional studies.
Specific ion efflux was determined as the difference in isotope efflux between total and non-specific efflux samples.

[2] = target: T2, ganglionic-type neuronal nicotinic receptors (rat pheochromocytoma clonal line PC12) (Rattus norvegicus, UniProt P04757+P12392); format: cell-based; details: for Ganglion Effect: pc12 cells; for effects at ganglionic sites (in words): summary of Table I
T2 construct: tumor of the rat adrenal medulla expressing ganglionic-typeneuronal nicotinic receptors; endogenous in cells; host or cells: PC12 (rat pheochromocytoma clonal line), intact cells

[3] = target: CNS nicotinic receptors; test: Inhibition of L-[3H]nicotine binding to rat brain membrane preparations; set-up: species or system rat (Sprague-Dawley); details: for pKi: 10 nM L-[3H]nicotine, 2 hr at 4° C., rat brain membranes, calculated from IC50 (Cheng et al.); for binding to CNS nicotinic receptors (in words): summary of Table I
Method: Rats (Sprague-Dawley) were maintained on a 12 hour light/dark cycle and were allowed free access to water and food supplied by Wayne Lab Blox, Madison, Wis. Animals used in the present studies weighed 200 to 250 g. Brain membrane preparations were obtained from brain tissue of either males or females.
Rats were killed by decapitation following anesthesia with 70% CO2. Brains were removed and placed on an ice-cold platform. […] The resulting homogenate was centrifuged at 18,000× g for 20 min. and the resulting pellet was resuspended in 20 volumes of water. After 60 min. incubation at 4° C., a new pellet was collected by centrifugation at 18,000× g for 20 min. After resuspension in 10 volumes of buffer, a new final pellet was again collected by centrifugation at 18,000× g for 20 min. Prior to each centrifugation step, the suspension was incubated at 37° C. for 5 min. to promote hydrolysis of endogenous acetylcholine. The final pellet was overlayered with buffer and stored at -70° C. On the day of the assay, that pellet was thawed, resuspended in buffer and centrifuged at 18,000× g for 20 min. The pellet obtained was resuspended in buffer to a final concentration of approximately 5 mg protein/ml.
The binding of L-[^3 H]nicotine was measured using a 2 hr. incubation at 4° C. Incubations contained about 500 μg of protein and were conducted in 12 mm×75 mm polypropylene test tubes in a final incubation volume of 250 μl. The incubation buffer was Krebs-Ringers HEPES containing 200 mM TRIS buffer, pH 7.5. The binding reaction was terminated by filtration of the protein containing bound ligand onto glass fiber filters (Micro Filtration Systems) that had been soaked in buffer containing 0.5 percent polyethyleneimine. Filtration vacuum was -50 to -100 torr. Each filter was washed five times with 3 ml of ice-cold buffer. The filtration apparatus was cooled to 2° C. before use and was kept cold through the filtration process. Nonspecific binding was determined by inclusion of 10 uM nonradioactive nicotine in the incubations.
The inhibition of L-[^3 H]nicotine binding by test compounds was determined by including one of eight different concentrations of the test compound in the incubation.

[4] = tested on: synaptosomes from the striatal area of rat brain (dopamine release); test: Dopamine release from synaptosomes of the striatal area of rat brain; format: biochemical, rat (Sprague-Dawley); details: for pEC50: [3H]-dopamine; for dopamine release (in words): summary of Table I
Method: Striata from 4 rats were homogenized in 2 ml of 0.32 M sucrose buffered with 5 mM HEPES (pH 7.5), using a glass-Teflon tissue grinder. The homogenate was diluted to 5 ml with additional homogenization solution and centrifuged at 1,000× g for 10 min. This procedure was repeated on the new pellet and the resulting supernatant was centrifuged at 12,000× g for 20 min. A 3 layer discontinuous Percoll gradient consisting of 16 percent, 10 percent and 7.5 percent Percoll in HEPES-buffered sucrose was made with the final pellet dispersed in the top layer. […] The new pellet was collected and re-suspended in perfusion buffer. The synaptosome suspension was incubated for 10 min. at 37° C. [^3 H]-Dopamine (Amersham, 40-60 Ci/mmol) was added to the suspension to give a final concentration of 0.1 uM, and the suspension was incubated for another 5 min. […] A continuous perfusion system was used to monitor release following exposure to each ligand. Synaptosomes were loaded onto glass fiber filters (Gelman type A/E). Perfusion buffer was dripped onto the filters (0.2-0.3 ml/min.) and pulled through the filters with a peristaltic pump. Synaptosomes were washed with perfusion buffer for a minimum of 20 min. before addition of the ligand. After the addition of 0.2 ml of a solution containing various concentrations of ligand, the perfusate was collected into scintillation vials at 1 min. intervals and the dopamine released was quantified by scintillation counting. Peaks of radioactivity released above background were summed and the average basal release during that time was subtracted from the total.

[5] = rat striatal synaptosomes, % of release by equal concentration of (S)-(-)-nicotine

T1 sequence (P02708 21-457): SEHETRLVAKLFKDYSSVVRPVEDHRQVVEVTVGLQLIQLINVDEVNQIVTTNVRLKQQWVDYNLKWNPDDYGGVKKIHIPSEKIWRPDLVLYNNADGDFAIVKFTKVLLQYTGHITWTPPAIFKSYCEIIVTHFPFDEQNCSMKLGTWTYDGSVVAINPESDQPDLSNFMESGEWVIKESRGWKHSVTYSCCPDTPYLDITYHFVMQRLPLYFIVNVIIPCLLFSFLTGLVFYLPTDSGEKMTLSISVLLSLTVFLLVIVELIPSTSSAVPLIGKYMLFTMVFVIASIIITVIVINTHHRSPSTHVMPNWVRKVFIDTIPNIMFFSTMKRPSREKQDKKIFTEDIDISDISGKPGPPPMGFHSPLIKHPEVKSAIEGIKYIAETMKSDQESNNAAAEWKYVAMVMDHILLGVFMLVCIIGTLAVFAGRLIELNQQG
T1 sequence (Q07001 22-517): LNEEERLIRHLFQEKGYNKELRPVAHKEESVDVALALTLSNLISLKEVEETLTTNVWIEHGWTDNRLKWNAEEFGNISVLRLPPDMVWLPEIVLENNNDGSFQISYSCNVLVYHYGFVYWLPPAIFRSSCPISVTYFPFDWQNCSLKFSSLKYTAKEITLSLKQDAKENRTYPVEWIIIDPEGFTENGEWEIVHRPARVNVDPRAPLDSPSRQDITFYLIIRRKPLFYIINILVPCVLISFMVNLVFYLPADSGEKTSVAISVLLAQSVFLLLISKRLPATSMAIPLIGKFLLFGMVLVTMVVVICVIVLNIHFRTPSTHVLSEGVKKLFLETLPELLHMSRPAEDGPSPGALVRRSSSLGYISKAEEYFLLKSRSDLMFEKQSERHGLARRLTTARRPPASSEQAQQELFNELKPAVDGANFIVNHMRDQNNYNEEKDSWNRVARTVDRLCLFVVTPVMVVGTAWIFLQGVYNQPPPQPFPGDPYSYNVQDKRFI
T1 sequence (P07510 23-517): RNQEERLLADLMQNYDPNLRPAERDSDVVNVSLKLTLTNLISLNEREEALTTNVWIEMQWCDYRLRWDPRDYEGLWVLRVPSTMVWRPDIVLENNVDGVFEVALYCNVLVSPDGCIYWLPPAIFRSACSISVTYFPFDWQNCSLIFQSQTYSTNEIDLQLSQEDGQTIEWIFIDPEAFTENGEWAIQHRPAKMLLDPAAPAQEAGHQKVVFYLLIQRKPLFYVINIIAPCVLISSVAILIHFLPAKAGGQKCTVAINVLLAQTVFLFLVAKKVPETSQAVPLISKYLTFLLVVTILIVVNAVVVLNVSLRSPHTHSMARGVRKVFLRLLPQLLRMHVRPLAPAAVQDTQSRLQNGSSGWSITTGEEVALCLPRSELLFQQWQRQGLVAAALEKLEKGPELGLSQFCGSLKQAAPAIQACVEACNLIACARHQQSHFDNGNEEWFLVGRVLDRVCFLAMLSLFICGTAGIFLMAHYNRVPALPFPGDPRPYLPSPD
T2 sequence (P04757 26-499): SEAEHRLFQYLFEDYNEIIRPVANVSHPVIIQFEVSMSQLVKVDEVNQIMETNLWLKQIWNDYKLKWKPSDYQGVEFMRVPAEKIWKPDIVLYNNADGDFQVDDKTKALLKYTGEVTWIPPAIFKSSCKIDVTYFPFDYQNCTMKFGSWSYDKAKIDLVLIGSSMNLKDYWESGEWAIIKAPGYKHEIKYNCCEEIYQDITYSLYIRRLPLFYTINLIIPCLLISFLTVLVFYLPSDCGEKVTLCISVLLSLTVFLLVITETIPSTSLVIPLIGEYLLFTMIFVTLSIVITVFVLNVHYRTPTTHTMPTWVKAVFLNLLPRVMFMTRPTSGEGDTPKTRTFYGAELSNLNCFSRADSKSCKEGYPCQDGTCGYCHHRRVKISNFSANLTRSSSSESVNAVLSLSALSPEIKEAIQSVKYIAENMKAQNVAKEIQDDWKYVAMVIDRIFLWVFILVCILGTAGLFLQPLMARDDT
T2 sequence (P12392 21-495): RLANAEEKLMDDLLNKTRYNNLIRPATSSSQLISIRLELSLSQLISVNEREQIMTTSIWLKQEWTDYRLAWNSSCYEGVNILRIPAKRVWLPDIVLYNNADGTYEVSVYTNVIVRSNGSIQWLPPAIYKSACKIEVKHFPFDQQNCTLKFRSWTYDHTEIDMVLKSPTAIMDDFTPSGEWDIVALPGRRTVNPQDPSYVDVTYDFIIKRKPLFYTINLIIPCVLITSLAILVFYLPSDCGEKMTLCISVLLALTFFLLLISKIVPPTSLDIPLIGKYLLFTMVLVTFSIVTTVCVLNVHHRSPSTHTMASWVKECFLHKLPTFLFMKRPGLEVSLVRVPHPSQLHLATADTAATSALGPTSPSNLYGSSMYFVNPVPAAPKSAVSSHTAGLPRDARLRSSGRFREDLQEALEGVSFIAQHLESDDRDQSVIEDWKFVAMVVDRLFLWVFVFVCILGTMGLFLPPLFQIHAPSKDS

| Structure (SMILES) | effects at muscle sites (in words) [1] | Muscle Effect [1] | Ganglion Effect [2] | effects at ganglionic sites (in words) [2] | pKi [3] | binding to CNS nicotinic receptors (in words) [3] | pEC50 ([4]; rat striatal synaptosomes) | Dopamine Release Emax [4, 5] [% nicotine] | Dopamine Release Emax ([4]; Emax at 100 uM, % of release by (S)-(-)-nicotine) [% nicotine] | dopamine release (in words) [4] |
| --- | --- | --- | --- | --- | --- | --- | --- | --- | --- | --- |
| CN1C2CCC(CC2)C1c1cccnc1 (racemic) [Sample No. 6, (+/-)-2-methyl-3-(3-pyridyl)-2-azabiyclo[2.2.2]octane fumarate] | desirably low effects at muscle sites | 30 | 21 | desirably low effects at muscle sites and ganglionic sites | 7.24 | good high affinity binding to CNS nicotinic receptors | 5.70 | 10 | – | – |
| O=C(O)/C=C/C(=O)O.c1cncc(C2NC3CCC2CC3)c1 (racemic) [compound 5, (+/-)-3-(3-pyridyl)-2-azabicyclo[2.2.2]octane fumarate] | desirably low effects at muscle sites | 9 | 3 | desirably low effects at muscle sites and ganglionic sites | 7.46 | good high affinity binding to CNS nicotinic receptors | 5.59 | 4 | – | – |
| C1=C[C@H]2CC[C@@H]1[C@@H](c1cccnc1)N2 (relative stereo) [Sample No. 1, (+/-)-endo 3-(3-pyridyl)-2-azabicyclo[2.2.2]oct-5-ene fumarate] | – | 69 | 12 | – | 6.32 | – | 6.26 | 14 | – | – |
| C1=C[C@H]2CC[C@@H]1[C@H](c1cccnc1)N2 (relative stereo) [Sample No. 2, (+/-)-exo-3-(3-pyridyl)-2-azabicyclo[2.2.2]oct-5-ene fumarate] | – | 103 | 65 | – | 8.70 | good high affinity binding to CNS nicotinic receptors | 6.52 | 41 | – | – |
| CN1[C@H](c2cccnc2)[C@@H]2C=C[C@H]1CC2 (relative stereo) [Sample No. 3, (+/-)-endo-2-methyl-3-(3-pyridyl)-2-azabicyclo[2.2.2]oct-5-ene fumarate] | – | 0 | 0 | – | 5.20 | – | 4.89 | 9 | – | – |
| CN1[C@H]2C=C[C@H](CC2)[C@@H]1c1cccnc1 (relative stereo) [Sample No. 4, (+/-)-Exo-2-methyl-3-(3-pyridyl)-2-azabicyclo[2.2.2]oct-5-ene fumarate] | desirably low effects at muscle sites | 8 | 8 | desirably low effects at muscle sites and ganglionic sites | 7.48 | good high affinity binding to CNS nicotinic receptors | 4.46 | 17 | – | – |
| CCN1[C@H](c2cccnc2)[C@@H]2C=C[C@H]1C2 (relative stereo) [Sample No. 7, (+/-)-endo-2-ethyl-3-(3-pyridyl)-2-azabicyclo[2.2.1]hept-5-ene] | – | 18 | 2 | – | 5.11 | – | 4.89 | 22 | – | – |
| COc1ccc(CN2[C@H](c3cccnc3)[C@@H]3C=C[C@H]2C3)cc1 (relative stereo) [Sample No. 8, (+/-)-endo-2-(p-methoxybenzyl)-3-(3-pyridyl)-2-azabicyclo[2.2.1]hept-5-ene] | desirably low effects at muscle sites | – | – | desirably low effects at muscle sites and ganglionic sites | 4.09 | – | < 4.00 | – | 15 | induce dopamine release |
| CN1[C@H](c2cccnc2)[C@@H]2C=C[C@H]1C2 (relative stereo) [Sample No. 10, (+/-)-endo-2-methyl-3-(3-pyridyl)-2-azabicyclo[2.2.1]hept-5-ene] | desirably low effects at muscle sites | 25 | 18 | desirably low effects at muscle sites and ganglionic sites | 8.52 | good high affinity binding to CNS nicotinic receptors | 7.07 | 44 | – | – |
| CN1[C@H](c2cncc(Br)c2)[C@@H]2C=C[C@H]1C2 (relative stereo) [Sample No. 12, (+/-)-endo-2-methyl-3-[3-(5-bromopyridyl)]-2-azabicyclo[2.2.1]hept-5-ene] | – | 2 | 4 | – | 5.68 | – | 5.78 | 12 | – | – |
| C1=C[C@H]2C[C@@H]1[C@@H](c1cccnc1)N2Cc1ccccc1 (relative stereo) [compound 9, (+/-)-endo-2-benzyl-3-(3-pyridyl)-2-azabicyclo[2.2.1]hept-5-ene] | desirably low effects at muscle sites | 7 | 11 | desirably low effects at muscle sites and ganglionic sites | 3.85 | – | 4.96 | 30 | – | induce dopamine release |
| CN1[C@H]2C=C[C@H](C2)[C@@H]1c1cccnc1 (relative stereo) [compound 11, (+/-)-exo-2-methyl-3-(3-pyridyl)-2-azabicyclo[2.2.1]hept-5-ene] | – | 7 | 55 | – | 8.05 | good high affinity binding to CNS nicotinic receptors | 7.05 | 58 | – | – |
| CN1CCC[C@H]1c1cccnc1 [Sample No. C-1, (S)-(-)-nicotine, reference compound] | – | – | – | – | – | – | – | 100 | – | – |
